US20020193627A1, “Novel crystalline disodium pamidronate hydrate and process for preparing it” (priority 1999, published 2002)
Read-outs that look alike come from different tables or passages of the source.

Legend:
[1] = for Stability Evaluation (Stable hydrate): form listed as stable
Description: (1) anhydrous disodium pamidronate, (2) disodium pamidronate 3˜4 hydrates prepared in the example 2(water contents 18.50%), (3) disodium pamidronate 5 hydrates (water contents 24.41%)
(1) 1.000 g 1.200 g of anhydrous disodium pamidronate was accurately weighed and 15 samples were prepared.
(2) 1.000 g -1.200 g of disodium pamidronate 3˜4 hydrates was accurately weighed and I; samples were prepared.
(3) 1.000 g-1.200 g of disodium pamidronate 5 hydrates was accurately weighed and 15 samples were prepared.
(4) The tests were carried out under the following conditions:
1) Temperature (T) and humidity (relative humidity: RH): i) 24° C., 50% RH, ii) 40° C., 0% RH, iii) 40° C., 75% RH […]
i) 1 week ii) 2 weeks, iii) 3 weeks, iv) 4 weeks. v) 5 weeks
(5) After the tests were carried out, each sample was dried under reduced pressurekbelow 5 mmHg) at 150° C. for 5 hours, weighed the lost weight and determined the water contents.
The values show water contents (%).

[2] = Soft gelatine capsule storage stability by visual observation; assay type: physicochemical; details: soft gelatine capsules (125 mg); 24° C., 50% RH; 6 months
Description: Soft gelatine capsules(125 mg) were respectively prepared from the crystalline disodium pamidronates of example 2 and comparative example by a conventional soft capsule manufacturing method. The soft capsules were stored in chamber which is controlled a constant temperature and hymidity (24° C., 50% RH) for 6 months. The stabilities of the soft capsules were tested by visual observation for the changes of properties, colors or shapes.

[3] = Thermal Gravity Assay (TGA); assay type: physicochemical
Description: In order to confirm the physical properties of 3˜4 hydrates prepared in the example 2, the lattice distances (d-values) and relative line sensitivities of X-ray diffraction patterns were measured on the conditions of step sizes 0.012 from 2 theta 5 to 2 theta 50, scan velocity 3.000 and time 2.000 by using Rigaku D/Max-IIIB X-ray Diffractometer (XRD). The test results were shown on FIG. 1a and FIG. 1b. Thermal Gravity Assay for 3˜4 hydrates (TGA data) was carried out by using TA Instruments Model 2950 TGA Thermal Analyzer (TGA). The lost weight of the 3˜4 hydrtes was measured by gradually raising the temperature of 10° C. per minute from room temperature to 500° C. The results were shown on FIG. 2.

Molecule	behaviour of water contents on storage ([1]; 24° C. 50% RH)	water contents ([1]; 24° C., 50% RH, 1 week) [%]	water contents ([1]; 24° C., 50% RH, 2 weeks) [%]	water contents ([1]; 24° C., 50% RH, 3 weeks) [%]	water contents ([1]; 24° C., 50% RH, 4 weeks) [%]	water contents ([1]; 24° C., 50% RH, 5 weeks) [%]	behaviour of water contents on storage ([1]; 40° C. 0% RH)	behaviour of water contents on storage ([1]; 40° C. 75% RH)	water contents ([1]; 40° C., 0% RH, 1 week) [%]	water contents ([1]; 40° C., 0% RH, 2 weeks) [%]	water contents ([1]; 40° C., 0% RH, 3 weeks) [%]	water contents ([1]; 40° C., 0% RH, 4 weeks) [%]	water contents ([1]; 40° C., 0% RH, 5 weeks) [%]	water contents ([1]; 40° C., 75% RH, 1 week) [%]	water contents ([1]; 40° C., 75% RH, 2 weeks) [%]	water contents ([1]; 40° C., 75% RH, 3 weeks) [%]	water contents ([1]; 40° C., 75% RH, 4 weeks) [%]	water contents ([1]; 40° C., 75% RH, 5 weeks) [%]	changes of properties, colors or shapes of soft capsules by visual observation [2]	Stability Evaluation (Stable hydrate) ([1]; 40° C., 0% RH)	further results
NCCC(O)(P(=O)([O-])O)P(=O)([O-])O.[Na+].[Na+] [comparative example, disodium 3-amino-1-hydroxypropane-1,1-diphosphonate]	lost from 1 week	19.14	18.79	18.29	18.43	18.37	maintained stably	maintained stably	24.44	24.19	23.52	23.01	22.21	24.02	24.43	24.35	23.65	23.55	changed in shapes (partly collapse by releasing water), colors and dewy phenomena on inner parts of the capsules	–	Stability Evaluation (Stable hydrate) ([1]; 40° C., 0% RH, listed as 5 hydrate): 5 hydrate; Stability Evaluation (Stable hydrate) ([1]; 40° C., 75% RH, listed as 5 hydrate): 5 hydrate
NCCC(O)(P(=O)([O-])O)P(=O)([O-])O.[Na+].[Na+] [Example 2, crystalline disodium pamidronate 3˜4 hydrates]	–	18.19	18.03	18.04	18.31	18.28	maintained stably	maintained stably	17.12	17.20	17.37	17.10	17.22	17.20	17.66	17.45	17.15	17.26	No changes are observed	3-4 hydrate	Stability Evaluation (Stable hydrate) ([1]; 24° C., 50% RH): 3-4 hydrate; Stability Evaluation (Stable hydrate) ([1]; 40° C., 75% RH): 3-4 hydrate; overall stability among disodium pamidronate hydrates ([1]; all storage conditions): structurally the most stable; temperature from which water loss begins (TGA) ([3]; 10° C. per minute from room temperature to 500° C.): 50 °C; weight loss (TGA) ([3]; till 221.11° C., 14.26%+3.845%, error of measurement ±3%): 18.105%
anhydrous disodium pamidronate	absorbed water	1.45	8.42	13.34	17.19	17.84	–	–	0.02	0.06	0.05	0.08	0.10	7.14	14.39	18.20	18.24	18.22	–	anhydrous form	time after which converted to 3˜4 hydrates ([1]; 24° C. 50% RH): 4 weeks; behaviour of water contents on storage ([1]; 24° C., 0% RH): maintained stably; time after which converted to 3˜4 hydrates ([1]; 40° C. 75% RH): 3 weeks
